IC50 data for ten molecules are collected here from patent US11466016B2, “Pharmaceutical compounds” (priority 2018, dated 2022).

The target of this assay is SHP2 (Homo sapiens (Human), UniProt Q06124). As to the kind of experiment: SHP2 Biochemical Assay (DiFMUP conversion, pIRS1 activating peptide).
[1] abbreviates: DiFMUP substrate, 0.25 μM pIRS1 peptide, 30 min pre-incubation, average where more than one data point, read-out: SHP2 (IC50).

Counter-ions that a name gives are not always drawn. Like-named read-outs stand apart in the source and are kept apart here.

Sequence of SHP2 (Q06124 whole entry): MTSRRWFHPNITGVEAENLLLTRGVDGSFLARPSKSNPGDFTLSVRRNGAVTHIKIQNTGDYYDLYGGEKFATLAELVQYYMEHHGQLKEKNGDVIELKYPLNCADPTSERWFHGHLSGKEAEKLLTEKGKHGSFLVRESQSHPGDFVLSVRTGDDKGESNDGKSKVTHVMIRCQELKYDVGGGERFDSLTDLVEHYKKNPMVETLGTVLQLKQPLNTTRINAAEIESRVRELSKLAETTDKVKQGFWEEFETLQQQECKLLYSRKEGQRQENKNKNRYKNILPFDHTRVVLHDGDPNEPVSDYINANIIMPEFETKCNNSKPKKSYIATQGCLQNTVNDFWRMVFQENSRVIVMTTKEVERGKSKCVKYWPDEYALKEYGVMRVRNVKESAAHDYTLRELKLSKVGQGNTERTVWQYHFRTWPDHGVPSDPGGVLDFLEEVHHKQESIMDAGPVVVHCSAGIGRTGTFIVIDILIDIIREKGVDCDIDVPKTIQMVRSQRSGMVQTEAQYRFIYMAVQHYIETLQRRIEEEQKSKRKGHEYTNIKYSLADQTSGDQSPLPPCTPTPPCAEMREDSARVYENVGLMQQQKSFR

A word on the IC50: it is the concentration needed to halve the response being measured. Consider `N[C@H]1C[C@@H]2CC[C@H]([C@H]1F)N2c1nc2[nH]nc(-c3ccc4ncc(N5CCC5)nc4c3Cl)c2nc1CO` [Example 150, {6-[(1R,2S,3S,5S)-3-amino-2-fluoro-8-azabicyclo[3.2.1]octan-8-yl]-3-[3-(azetidin-1-yl)-5-chloroquinoxalin-6-yl]-1H-pyrazolo[3,4-b]pyrazin-5-yl}methanol], for which, under setting [1], the IC50 worked out at 0.015 µM. The same measure, in the same setting: the figure for `Cn1nc2ccc(-c3n[nH]c4nc(N5[C@@H]6CC[C@H]5[C@H](F)[C@@H](N)C6)c(CO)nc34)c(Cl)c2c1Cl` [Example 102, {6-[(1S,2R,3S,5R)-3-amino-2-fluoro-8-azabicyclo[3.2.1]octan-8-yl]-3-(3,4-dichloro-2-methyl-2H-indazol-5-yl)-1H-pyrazolo[3,4-b]pyrazin-5-yl}methanol] is 0.015 µM. Still for that read-out and setting: the figure for `Cn1nc2ccc(-c3c[nH]c4nc(N5[C@@H]6CC[C@H]5C[C@H](N)C6)cnc34)c(Cl)c2c1Cl` [Example 41, exo-8-[7-(3,4-dichloro-2-methyl-2H-indazol-5-yl)-5H-pyrrolo[2,3-b]pyrazin-3-yl]-8-azabicyclo[3.2.1]octan-3-amine, hydrochloride salt] is 0.0036 µM. Turning to `Cn1nc2ccc(-c3c[nH]c4nc(N5[C@H]6CC[C@@H]5[C@@H](F)[C@@H](N)C6)cnc34)c(Cl)c2c1Cl` [Example 104, (1R,2S,3S,5S)-8-[7-(3,4-dichloro-2-methyl-2H-indazol-5-yl)-5H-pyrrolo[2,3-b]pyrazin-3-yl]-2-fluoro-8-azabicyclo[3.2.1]octan-3-amine, hydrochloride], the IC50 was found to be 0.0095 µM. `Cn1cc2c(Cl)c(-c3c[nH]c4nc(N5CC[C@H](N)[C@@H](F)C5)cnc34)ccc2n1` [Example 30, (3S,4S)-1-[7-(4-chloro-2-methyl-2H-indazol-5-yl)-5H-pyrrolo[2,3-b]pyrazin-3-yl]-3-fluoropiperidin-4-amine, hydrochloride salt]: the IC50 under setting [1] is 0.15 µM. For `Cc1nc2c(-c3ccc4nn(C)c(C#N)c4c3Cl)n[nH]c2nc1N1[C@H]2CC[C@@H]1[C@@H](F)[C@@H](N)C2` [Example 124, 5-{6-[(1R,2S,3S,5S)-3-amino-2-fluoro-8-azabicyclo[3.2.1]octan-8-yl]-5-methyl-1H-pyrazolo[3,4-b]pyrazin-3-yl}-4-chloro-2-methyl-2H-indazole-3-carbonitrile], the IC50 under setting [1] came out at 0.0081 µM. The same measure, in the same setting: as for `Cn1nc2ccc(-c3n[nH]c4nc(N5[C@H]6CC[C@@H]5[C@@H](F)[C@@H](N)C6)c(CO)nc34)c(F)c2c1Cl` [Example 83, {6-[(1R,2S,3S,5S)-3-amino-2-fluoro-8-azabicyclo[3.2.1]octan-8-yl]-3-(3-chloro-4-fluoro-2-methyl-2H-indazol-5-yl)-1H-pyrazolo[3,4-b]pyrazin-5-yl}methanol], the figure is 0.0086 µM; as for `Cn1cc2c(F)c(-c3c[nH]c4nc(N5[C@@H]6CC[C@H]5C[C@@H](N)C6)cnc34)ccc2n1` [Example 38, endo-8-[7-(4-fluoro-2-methyl-2H-indazol-5-yl)-5H-pyrrolo[2,3-b]pyrazin-3-yl]-8-azabicyclo[3.2.1]octan-3-amine], 0.053 µM; as for `CCn1nc2ccc(-c3n[nH]c4nc(N5[C@H]6CC[C@@H]5[C@@H](F)[C@@H](N)C6)c(C)nc34)c(Cl)c2c1C#N` [Example 127, 5-{6-[(1R,2S,3S,5S)-3-amino-2-fluoro-8-azabicyclo[3.2.1]octan-8-yl]-5-methyl-1H-pyrazolo[3,4-b]pyrazin-3-yl}-4-chloro-2-ethyl-2H-indazole-3-carbonitrile, hydrochloride salt], 0.014 µM. On to `Cn1cc2c(Cl)c(-c3c[nH]c4nc(N5[C@@H]6CC[C@H]5C[C@@H](N)C6)c(CO)nc34)ccc2n1` [Example 34, {3-[endo-3-amino-8-azabicyclo[3.2.1]octan-8-yl]-7-(4-chloro-2-methyl-2H-indazol-5-yl)-5H-pyrrolo[2,3-b]pyrazin-2-yl}methanol, hydrochloride salt], for which, under setting [1], the IC50 is 0.013 µM.
